Laboratory results reported in publication PMC11929074, “An in vitro platform for the enzymatic characterization of the rhomboid protease RHBDL4” (The Journal of Biological Chemistry, 2025).
Values belong to the molecule of their own block, whether it stands above or below them. *1 amine or outer side, *2 acyl side, *3 side chain or, on linkers, in order; H or OH if unused. Where a SMILES comes first, the peptide text is derived from it. [ ]: non-standard residue; d: D form. The star is where a group is joined. NH(4-phenylbutyl) = c1ccc(CCCCN*)cc1; X1 = C[C@H](N[*:1])C(=O)C(=O)[*:2]

Legend:
recombinant human RHBDL4 [1] = target: T1, recombinant human RHBDL4 (Homo sapiens, UniProt Q8TEB9); test: Inhibition of RHBDL4 proteolysis of IQ6 (FRET-based in vitro assay); assay type: biochemical; details: IQ6 substrate; for inhibition of RHBDL4 proteolytic activity: increasing concentrations, 1 h pre-incubation, 2 h reaction, n = 3
T1 construct: The entire RHBDL4 and RHBDL4-S144A cDNAs were subcloned into the pcDNA3.1 vector; 6xHis (C, cleaved yes); made in house; host or cells: Freestyle 293-F cells (transient transfection, pcDNA3.1-HisA)
T1 sequence (Q8TEB9 1-315): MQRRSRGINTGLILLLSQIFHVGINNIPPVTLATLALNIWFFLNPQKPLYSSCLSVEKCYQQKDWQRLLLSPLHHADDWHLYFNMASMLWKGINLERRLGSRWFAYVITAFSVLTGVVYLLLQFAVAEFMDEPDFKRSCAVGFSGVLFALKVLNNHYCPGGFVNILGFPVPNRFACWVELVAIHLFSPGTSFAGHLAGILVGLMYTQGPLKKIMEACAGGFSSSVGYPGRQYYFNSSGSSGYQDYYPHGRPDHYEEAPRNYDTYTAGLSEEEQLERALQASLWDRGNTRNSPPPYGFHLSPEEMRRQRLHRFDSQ
From the text: (§1) B, schematic representation of the peptidyl-α-ketoamide scaffold with peptide sequence P5-P1 at the nonprime side and hydrophobic substituent (R) at the prime side. C, schematic representation of the peptidyl-α-ketoamide inhibitor, compound 1a/1b. D, representative inhibition curve derived from measuring rates of RHBDL4 proteolysis of the fluorescent substrate IQ6 with increasing concentrations of compound 1a. E, same as (D), except inhibition curve was derived from using increasing concentrations of compound 1b. […] Reactions were quenched with 1 keLaemmli buffer and loaded on 12% SDS-PAGE gel. Post-transfer membranes were visualized using a fluorescence Cy3 filter and by Western blotting using an α-His antibody. For (A, D, and E), all inhibitors were pre-incubated with RHBDL4 for 1 h and allowed to react with the IQ6 substrate for 2 h.
(§2) B, representative inhibition curve derived from measuring rates of RHBDL4 proteolysis of the fluorescent substrate IQ6 with increasing concentrations of compound 3. C, same as (B), except inhibition curve was derived from using increasing concentrations of compound 4. […] Reactions were quenched with 1 RLaemmli buffer and loaded on 12% SDS-PAGE gel. Post-transfer membranes were visualized using a fluorescence Cy3 filter and by Western blotting using an α-His antibody. E, saturation curve of RHBDL4 using fluorescent substrate, KSp207. For (B and C), all inhibitors were pre-incubated with RHBDL4 for 1 h and allowed to react with the IQ6 substrate for 2 h. […] I assigned them to the substrate KSp207, which is named on the x-axis and in the inset table.
(§3) The enzymatic assay was performed as previously described (Arutyunova et al., 2014, ([26])). […] The FRET-based cleavage assay was conducted in a fluorescence multiwell plate reader (SynergyMx, BioTek). Upon excitation at 320 nm, the emission intensity at 400 nm was recorded for 2 h at minimal intervals under shaking conditions and plotted using the GraphPad PRISM software. The initial velocities were defined as the slopes of the curve of the generated product as a function of time. The plots of the generated product against the corresponding substrate concentration were fitted with the Michaelis–Menten equation. Catalytic parameters were extrapolated using GraphPad PRISM. […] The samples were desalted using C18 tips (Rainin), eluted in 80% acetonitrile, and dried down in a vacuum centrifuge prior to mass spectrometry analysis.

[2] = test system: WT RHBDL4 (recombinant, purified); test: TAMRA-FP competition labelling on recombinant RHBDL4; assay type: binding, human; details: in-gel Cy3 fluorescence, compared with inactive RHBDL4-S144A control
From the text: as §1, §2

recombinant human RHBDL4 [3] = target: T1, recombinant human RHBDL4; test: FRET-based cleavage assay with fluorescent (IQ / KSp207) substrates; assay type: biochemical; details: for kcat / pH of highest RHBDL4 protease activity / salt concentration range with satisfactory activity: triplicate; for kcat: average ± S.E.M.; for pH of highest RHBDL4 protease activity: pH range 5 to 10; for salt concentration range with satisfactory activity: salt tested 100 to 300 mM
Method: Figure 2 Kinetic characterization of recombinant human RHBDL4.A, schematic representation of the FRET-based cleavage assay using internally quenched (IQ) substrates. B, saturation curves of RHBDL4 using the fluorescent IQ substrates, IQ6, IQ41, and IQ46. C, pH dependence of the RHBDL4 protease activity using substrates IQ6, IQ41, and IQ46. D, salt concentration dependence of the RHBDL4 protease activity using substrates IQ6, IQ41, and IQ46. All the assays were performed in triplicate, and data points are represented by the average ± S.E.M. TEXT PRINTED IN THE PICTURE: (B) IQ 6: KM(μM) 10.73±2; Kcat(hr^-1) 7.33±0.6 | (B) IQ 41: KM(μM) 5.63±2; Kcat(hr^-1) 2.41±0.6 | (B) IQ 46: KM(μM) 7.19±1; Kcat(hr^-1) 3.62±0.8
(§4) The reaction setup in our FRET assay enabled the direct determination of Michaelis–Menten kinetic parameters Km and kcat for the cleavage of IQ6, IQ41, and IQ46 by RHBDL4. Our fluorescence reading data were converted to μM/h using the standard calibration curve for all three IQ substrates, and the correction factor for the inner filter effect was applied. We confirmed that purified RHBDL4 followed Michaelis–Menten kinetics with KmIQ6=10.73±2μΜ , KmIQ41=5.63±2μΜ , and KmIQ46=7.19±1μΜ and kcatIQ6=7.33±0.6h^−1 , kcatIQ41=2.41±0.6h^−1 , and kcatIQ46=3.62±0.08h^−1 (Figs. 2B and S2B).
Our FRET-based assay is a suitable platform for optimizing conditions that enhance RHBDL4 protease activity. To this end, we selected the optimal pH for RHBDL4 protease activity and performed FRET-based assays with IQ6, IQ41, and IQ46 at a pH range of 5 to 10. […] The optimal salt concentration for the RHBDL4 protease activity was also tested in the range of 100 to 300 mM (Fig. 2D). We conclude that with the IQ6, IQ41, and IQ46 substrates, RHBDL4 had satisfactory activity in a salt concentration range of 100 to 300 mM.
as §2, with “Figure 5 In vitro inhibition of RHBDL4 activity with TMED7-derived peptidyl α-ketoamides.A, schematic representation of the peptidyl-α-ketoamide inhibitor, compound 3 and 4. B,” for “B,”
as §3
All the calculations for Km, Vmax, and Kcat for RHBDL4 and its mutants were performed using GraphPad PRISM.

[4] = target: T2, WT RHBDL4 (human rhomboid protease RHBDL4, recombinant) (human) (UniProt Q8TEB9)
T2 sequence: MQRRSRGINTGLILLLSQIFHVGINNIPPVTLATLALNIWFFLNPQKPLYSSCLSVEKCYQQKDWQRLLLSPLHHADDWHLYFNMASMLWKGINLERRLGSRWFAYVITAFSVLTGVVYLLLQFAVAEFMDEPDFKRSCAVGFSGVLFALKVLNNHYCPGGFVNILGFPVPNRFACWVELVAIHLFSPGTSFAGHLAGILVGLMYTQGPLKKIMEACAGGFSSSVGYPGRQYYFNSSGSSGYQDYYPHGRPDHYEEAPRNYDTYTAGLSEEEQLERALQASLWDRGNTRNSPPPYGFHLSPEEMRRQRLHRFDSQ

RHBDL4-S144A = test: FRET-based cleavage by inactive RHBDL4-S144A; assay type: biochemical, human; details: pH 8, 37 °C
From the text: as §4
Figure 3 Dependence of conserved rhomboid motifs on RHBDL4 protease activity.A, RHBDL4 representation highlighting TM1–6 (in green), the VBM- and UIM-binding motifs (in blue), the conserved rhomboid motifs (WR and Gx3G), and the serine-histidine catalytic dyad (in pink). The table indicates the RHBDL4 region, the conserved rhomboid motifs, and amino acid mutation. The RHBDL4 proteolytic activity. B, size-exclusion chromatography profile of RHBDL4-AR and RHBDL4-Ax3G, being eluted as a monomeric protein. C, coomassie staining and Western blotting using an α-His antibody of concentrated purified RHBDL4-AR and RHBDL4-Ax3G. D, activity profiles of the WT RHBDL4 and mutant RHBDL4-S144A, RHBDL4-AR, and RHBDL4-Ax3G proteins, as measured by cleavage of the fluorescent substrate IQ6. Assay was performed in triplicate (n = 3), and data points are represented by the average ± S.E.M. Statistically significant differences compared to WT RHBDL4 are indicated (pairwise Dunnett's test followed by Bonferroni's post hoc analysis; ∗p < 0.05, n.s., no significance).
The enzymatic assay was performed as previously described (Arutyunova et al., 2014, ([26])). […] The FRET-based cleavage assay was conducted in a fluorescence multiwell plate reader (SynergyMx, BioTek). Upon excitation at 320 nm, the emission intensity at 400 nm was recorded for 2 h at minimal intervals under shaking conditions and plotted using the GraphPad PRISM software. […]

[5] = Michaelis-Menten, 1.5 μM RHBDL4, 37 °C, 2 h, pH 8.0, 150 mM NaCl, 0.1% DDM

Molecule: O=c1oc(Cl)c(Cl)c2ccccc12 [3,4-dichloroisocoumarin]
inhibition of RHBDL4 proteolytic activity (recombinant human RHBDL4 [1]): inhibited the RHBDL4 proteolytic activity only at higher concentrations (100 μM)

Molecule: Cl.NCCc1ccc(S(=O)(=O)F)cc1 [4-(2-aminoethyl) benzenesulfonyl fluoride hydrochloride]
inhibition of RHBDL4 proteolytic activity (recombinant human RHBDL4 [1]): weak inhibition at all concentrations tested

Molecule: Cc1ccc(S(=O)(=O)N[C@@H](Cc2ccccc2)C(=O)CCl)cc1 [N-p-tosyl-L-phenylalanine chloromethyl ketone]
inhibition of RHBDL4 proteolytic activity (recombinant human RHBDL4 [1]): weak inhibition at all concentrations tested

Molecule: CC(=O)N[C@H](C(=O)N[C@@H](CCCNC(=N)N)C(=O)NC(Cc1c[nH]cn1)C(=O)N[C@@H](C)C(=O)C(=O)N[C@H](COCc1ccccc1)Cc1ccccc1)C(C)C (stereo partly shown) [compound 1a]
competition with TAMRA-FP probe (fluorescent signal) [2]: significant reduction of fluorescent signal

Molecule: CC(=O)N[C@H](C(=O)N[C@@H](CCCNC(=N)N)C(=O)NC(Cc1c[nH]cn1)C(=O)N[C@@H](C)C(=O)C(=O)N[C@H](COCc1ccccc1)Cc1ccccc1)C(C)C (stereo partly shown) [compound 1b]
competition with TAMRA-FP probe (fluorescent signal) [2]: significant reduction of fluorescent signal

IC50 (recombinant human RHBDL4 [1]; inhibitor pre-incubated with RHBDL4 for 1 h, then reacted with IQ6 for 2 h, n = 3, average ± S.E.M.): 3.4 ± 1.2 µM
Molecule: CC(=O)N1CCC[C@H]1C(=O)NCC(=O)N[C@@H](Cc1ccccc1)C(=O)N[C@@H](CO)C(=O)N[C@@H](C)C(=O)C(=O)NCCCCc1ccccc1 [compound 2] (Ac-PGFS[X1]-{NH(4-phenylbutyl)})

Molecule: Ac-QMESA-4mc [KSp207, TMED7-derived fluorescent substrate Ac-QMESA-4mc]
cleavage rate/efficiency relative to other substrates (recombinant human RHBDL4 [3]; FRET-based assay): higher enzymatic cleavage efficiency than IQ6
kcat (recombinant human RHBDL4 [3]; [5]): 0.003069 ± 0.00022 s⁻¹
catalytic rate (cleavage rate) (recombinant human RHBDL4 [3]; approximate, discussion): ~11 h⁻¹

IC50 of inhibition of RHBDL4 proteolysis of the fluorescent substrate IQ6 (in vitro FRET-based activity assay; 1 h pre-incubation, 2 h reaction) [4]: 2.31 µM
Molecule: compound 1a (peptidyl α-ketoamide, Ac-VRHA-CONH-CH(Bn)-CH2OBn) (peptide)

IC50 of inhibition of RHBDL4 proteolysis of the fluorescent substrate IQ6 (in vitro FRET-based activity assay; 1 h pre-incubation, 2 h reaction) [4]: 6.1 µM
Molecule: compound 1b (peptidyl α-ketoamide, Ac-VRHA-CONH-CH(Bn)-CH2OBn) (peptide)

Molecule: mca-FLVRGK(dnp) [IQ46, fluorescent internally quenched substrate mca-FLVRGK(dnp)]
kcat (recombinant human RHBDL4 [3]; 37 °C, pH 8.0): 0.00101 ± 0.00022 s⁻¹
kcat (recombinant human RHBDL4 [3]; [5]): 0.00101 ± 2.2e-05 s⁻¹
pH of highest RHBDL4 protease activity (recombinant human RHBDL4 [3]): 8
salt concentration range with satisfactory activity (recombinant human RHBDL4 [3]): 100 to 300 mM
cleavage by inactive RHBDL4-S144A (increase in fluorescence / activity) (RHBDL4-S144A): negligible increase in fluorescence

Molecule: mca-FVTKGK(dnp) [IQ41, fluorescent internally quenched substrate mca-FVTKGK(dnp)]
kcat (recombinant human RHBDL4 [3]; 37 °C, pH 8.0): 0.000669 ± 0.00017 s⁻¹
kcat (recombinant human RHBDL4 [3]; [5]): 0.000669 ± 0.00017 s⁻¹
pH of highest RHBDL4 protease activity (recombinant human RHBDL4 [3]): 7
salt concentration range with satisfactory activity (recombinant human RHBDL4 [3]): 100 to 300 mM
cleavage by inactive RHBDL4-S144A (increase in fluorescence / activity) (RHBDL4-S144A): negligible increase in fluorescence

IC50 of inhibition of RHBDL4 activity (in vitro FRET-based activity assay) [4]: 3.4 µM
B1: compound 2 (IQ6-derived peptidyl α-ketoamide, Ac-PGFSA-CONH-(CH2)4-Ph) (peptide)
peptide: Ac-PGFSA-{α‑ketoamide CONH‑(CH2)4‑Ph}
